Source: patent US12247045B2, “MAP4K4 inhibitors” (Imperial College Innovations Limited, priority 2018, dated 2025)
Like-named read-outs stand apart in the source and are kept apart here.

Legend:
Format in all cases: biochemical
[1] = target: T1, human MAP4K4 kinase domain (Homo sapiens, UniProt O95819); assay: MAP4K4 kinase activity, CisBio HTRF Transcreener ADP assay
T1 construct: 0.5 nM human MAP4K4 kinase domain (Invitrogen); purchased Invitrogen
Excerpt: Compounds of the present invention were screened for their inhibitory activity against MAP4K4, versus selected off-target hits found with early members of this chemical series. MAP4K4 kinase activity was monitored using the CisBio HTRF Transcreener ADP assay, a competitive immunoassay with a reproducible Z′>0.6. In the detection step, endogenous ADP and d2-labeled ADP compete for binding an anti-ADP monoclonal antibody labelled with Eu^3+ cryptate. A ratiometric fluorescent read-out is used at 665 and 620 nm. Reactions were performed in the presence of 1% DMSO with ATP added at Km (10 μM), 0.5 nM human MAP4K4 kinase domain (Invitrogen), 1 μM biotin-myelin basic protein as substrate (Invitrogen), and extension of reaction time to 2 h. Assays were run in Greiner low volume plates with a final reaction volume of 10 μl. The MAP4K4 inhibition data are provided in Table 41 below for selected compounds of the present invention. The data has been categorised based on the IC50 value of the compound as “A”, “B” or “C”. IC50: A≤100 nM; 100 nM<B≤1 μM; 1 μM<C; nd=not determined.

MINK1/MAP4K6 = MINK1/MAP4K6 (Homo sapiens, UniProt Q8N4C8); assay: Kinase selectivity panel, MINK1/MAP4K6; conditions: read-out: pIC50 MINK1/MAP4K6 (converted)
Sequence of MINK1/MAP4K6 (Q8N4C8 whole entry): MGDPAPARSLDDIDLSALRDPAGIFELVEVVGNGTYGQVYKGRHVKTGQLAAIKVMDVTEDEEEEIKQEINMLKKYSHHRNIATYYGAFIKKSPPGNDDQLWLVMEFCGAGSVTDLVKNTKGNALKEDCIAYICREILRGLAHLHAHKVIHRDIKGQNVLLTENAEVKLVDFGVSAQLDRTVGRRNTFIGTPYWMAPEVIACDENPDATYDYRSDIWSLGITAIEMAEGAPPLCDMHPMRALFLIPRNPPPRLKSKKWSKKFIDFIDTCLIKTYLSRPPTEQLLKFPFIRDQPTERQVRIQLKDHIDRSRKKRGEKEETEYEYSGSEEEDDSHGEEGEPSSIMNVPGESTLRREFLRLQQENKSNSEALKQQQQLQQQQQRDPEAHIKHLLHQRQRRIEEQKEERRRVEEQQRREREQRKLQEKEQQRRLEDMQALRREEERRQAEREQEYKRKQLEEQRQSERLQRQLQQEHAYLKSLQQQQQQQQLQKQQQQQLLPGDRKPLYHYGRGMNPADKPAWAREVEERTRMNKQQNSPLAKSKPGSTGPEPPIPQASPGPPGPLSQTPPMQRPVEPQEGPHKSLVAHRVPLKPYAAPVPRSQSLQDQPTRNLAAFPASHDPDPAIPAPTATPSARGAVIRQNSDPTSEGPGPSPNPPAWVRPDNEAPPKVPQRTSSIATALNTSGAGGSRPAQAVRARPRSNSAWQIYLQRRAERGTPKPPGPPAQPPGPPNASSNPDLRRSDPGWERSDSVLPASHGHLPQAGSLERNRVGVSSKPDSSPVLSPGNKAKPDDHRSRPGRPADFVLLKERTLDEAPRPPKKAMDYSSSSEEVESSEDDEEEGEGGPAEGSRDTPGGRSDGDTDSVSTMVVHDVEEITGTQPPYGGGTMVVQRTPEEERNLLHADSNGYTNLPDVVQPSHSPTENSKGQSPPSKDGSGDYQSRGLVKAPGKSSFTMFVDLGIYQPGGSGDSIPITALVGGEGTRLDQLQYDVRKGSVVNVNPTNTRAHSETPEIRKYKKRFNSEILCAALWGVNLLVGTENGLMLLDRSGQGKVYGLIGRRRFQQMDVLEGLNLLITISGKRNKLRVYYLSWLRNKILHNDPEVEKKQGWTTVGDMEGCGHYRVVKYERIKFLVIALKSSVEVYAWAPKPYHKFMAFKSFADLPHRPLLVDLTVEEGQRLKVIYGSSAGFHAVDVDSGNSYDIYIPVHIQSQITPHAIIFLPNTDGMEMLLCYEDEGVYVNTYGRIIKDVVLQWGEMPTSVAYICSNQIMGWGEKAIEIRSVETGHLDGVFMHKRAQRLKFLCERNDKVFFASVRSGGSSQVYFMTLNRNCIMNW
Excerpt: (§1) The data in Table 42 also provides the fold selectivity of the two compounds in favour of MAP4K4 over the tested kinase. The fold selectivity is indicated in parenthesis.

TNIK/MAP4K7 = TNIK/MAP4K7 (Homo sapiens, UniProt Q9UKE5); assay: Kinase selectivity panel, TNIK/MAP4K7; conditions: read-out: pIC50 TNIK/MAP4K7 (converted)
Sequence of TNIK/MAP4K7 (Q9UKE5 whole entry): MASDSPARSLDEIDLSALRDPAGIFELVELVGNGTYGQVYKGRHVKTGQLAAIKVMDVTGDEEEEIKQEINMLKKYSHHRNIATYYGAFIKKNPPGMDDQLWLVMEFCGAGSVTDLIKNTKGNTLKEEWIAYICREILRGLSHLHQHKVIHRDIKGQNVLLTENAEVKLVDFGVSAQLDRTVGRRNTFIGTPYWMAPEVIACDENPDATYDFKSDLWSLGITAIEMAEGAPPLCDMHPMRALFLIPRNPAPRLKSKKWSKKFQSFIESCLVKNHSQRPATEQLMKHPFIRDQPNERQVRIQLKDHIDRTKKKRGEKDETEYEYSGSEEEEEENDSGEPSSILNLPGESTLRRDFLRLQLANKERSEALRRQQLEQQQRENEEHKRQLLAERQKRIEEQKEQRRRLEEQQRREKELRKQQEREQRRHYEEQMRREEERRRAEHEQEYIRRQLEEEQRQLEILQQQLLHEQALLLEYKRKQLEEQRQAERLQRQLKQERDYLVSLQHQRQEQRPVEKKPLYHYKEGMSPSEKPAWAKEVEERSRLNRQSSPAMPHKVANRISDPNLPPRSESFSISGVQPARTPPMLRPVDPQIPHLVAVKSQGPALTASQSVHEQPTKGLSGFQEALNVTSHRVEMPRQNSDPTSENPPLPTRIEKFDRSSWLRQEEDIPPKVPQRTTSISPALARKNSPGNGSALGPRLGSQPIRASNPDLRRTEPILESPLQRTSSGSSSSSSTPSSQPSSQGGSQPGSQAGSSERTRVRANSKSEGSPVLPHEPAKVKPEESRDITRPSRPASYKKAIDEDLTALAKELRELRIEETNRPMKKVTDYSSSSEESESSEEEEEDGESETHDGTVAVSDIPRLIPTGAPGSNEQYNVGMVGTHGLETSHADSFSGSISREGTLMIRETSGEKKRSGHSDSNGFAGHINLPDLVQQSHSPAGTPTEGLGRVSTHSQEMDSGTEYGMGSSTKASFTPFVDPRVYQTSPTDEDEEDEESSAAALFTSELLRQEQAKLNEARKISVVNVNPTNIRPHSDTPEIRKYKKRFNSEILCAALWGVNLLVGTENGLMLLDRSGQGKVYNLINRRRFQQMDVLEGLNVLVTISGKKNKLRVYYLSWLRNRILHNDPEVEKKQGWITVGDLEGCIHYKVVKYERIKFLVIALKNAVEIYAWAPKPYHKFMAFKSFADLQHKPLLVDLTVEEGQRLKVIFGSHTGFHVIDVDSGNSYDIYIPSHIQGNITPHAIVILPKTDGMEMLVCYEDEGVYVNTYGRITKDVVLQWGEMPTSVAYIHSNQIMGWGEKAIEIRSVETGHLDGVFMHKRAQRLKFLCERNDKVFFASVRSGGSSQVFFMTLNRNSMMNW
Excerpt: as §1

GCK/MAP4K2 = target: T2, GCK/MAP4K2 (Homo sapiens, UniProt Q12851); assay: Kinase selectivity panel, GCK/MAP4K2; conditions: for fold selectivity MAP4K4 over GCK/MAP4K2: in favour of MAP4K4; for IC50: read-out: pIC50 GCK/MAP4K2 (converted)
T2 sequence (Q12851 1-820): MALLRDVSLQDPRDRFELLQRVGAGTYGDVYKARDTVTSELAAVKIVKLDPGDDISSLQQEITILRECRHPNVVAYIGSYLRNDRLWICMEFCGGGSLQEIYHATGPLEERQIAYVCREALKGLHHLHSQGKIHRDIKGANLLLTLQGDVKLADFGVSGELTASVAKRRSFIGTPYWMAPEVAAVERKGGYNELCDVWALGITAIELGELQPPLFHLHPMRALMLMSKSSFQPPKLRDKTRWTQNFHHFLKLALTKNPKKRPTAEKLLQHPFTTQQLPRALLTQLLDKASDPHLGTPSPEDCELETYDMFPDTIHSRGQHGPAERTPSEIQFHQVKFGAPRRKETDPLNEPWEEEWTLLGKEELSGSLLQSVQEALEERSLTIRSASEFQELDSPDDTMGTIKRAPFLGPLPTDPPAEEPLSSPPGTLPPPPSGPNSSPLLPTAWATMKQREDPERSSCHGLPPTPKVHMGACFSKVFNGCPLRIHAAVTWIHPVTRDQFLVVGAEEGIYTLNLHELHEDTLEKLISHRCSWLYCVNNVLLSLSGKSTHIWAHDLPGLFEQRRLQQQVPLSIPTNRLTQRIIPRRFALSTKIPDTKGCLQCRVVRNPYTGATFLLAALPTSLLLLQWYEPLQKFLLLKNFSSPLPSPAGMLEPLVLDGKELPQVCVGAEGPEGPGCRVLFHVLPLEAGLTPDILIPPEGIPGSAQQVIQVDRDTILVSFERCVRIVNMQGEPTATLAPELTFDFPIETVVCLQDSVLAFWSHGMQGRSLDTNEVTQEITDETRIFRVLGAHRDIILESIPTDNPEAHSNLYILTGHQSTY
Excerpt: as §1

MLK1/MAP3K9 = MLK1/MAP3K9 (Homo sapiens, UniProt P80192); assay: Kinase selectivity panel, MLK1/MAP3K9; conditions: for fold selectivity MAP4K4 over MLK1/MAP3K9: in favour of MAP4K4; for IC50: read-out: pIC50 MLK1/MAP3K9 (converted)
Excerpt: as §1

MLK3/MAP3K11 = MLK3/MAP3K11 (Homo sapiens, UniProt Q16584); assay: Kinase selectivity panel, MLK3/MAP3K11; conditions: for fold selectivity MAP4K4 over MLK3/MAP3K11: in favour of MAP4K4; for IC50: read-out: pIC50 MLK3/MAP3K11 (converted)
Sequence of MLK3/MAP3K11 (Q16584 whole entry): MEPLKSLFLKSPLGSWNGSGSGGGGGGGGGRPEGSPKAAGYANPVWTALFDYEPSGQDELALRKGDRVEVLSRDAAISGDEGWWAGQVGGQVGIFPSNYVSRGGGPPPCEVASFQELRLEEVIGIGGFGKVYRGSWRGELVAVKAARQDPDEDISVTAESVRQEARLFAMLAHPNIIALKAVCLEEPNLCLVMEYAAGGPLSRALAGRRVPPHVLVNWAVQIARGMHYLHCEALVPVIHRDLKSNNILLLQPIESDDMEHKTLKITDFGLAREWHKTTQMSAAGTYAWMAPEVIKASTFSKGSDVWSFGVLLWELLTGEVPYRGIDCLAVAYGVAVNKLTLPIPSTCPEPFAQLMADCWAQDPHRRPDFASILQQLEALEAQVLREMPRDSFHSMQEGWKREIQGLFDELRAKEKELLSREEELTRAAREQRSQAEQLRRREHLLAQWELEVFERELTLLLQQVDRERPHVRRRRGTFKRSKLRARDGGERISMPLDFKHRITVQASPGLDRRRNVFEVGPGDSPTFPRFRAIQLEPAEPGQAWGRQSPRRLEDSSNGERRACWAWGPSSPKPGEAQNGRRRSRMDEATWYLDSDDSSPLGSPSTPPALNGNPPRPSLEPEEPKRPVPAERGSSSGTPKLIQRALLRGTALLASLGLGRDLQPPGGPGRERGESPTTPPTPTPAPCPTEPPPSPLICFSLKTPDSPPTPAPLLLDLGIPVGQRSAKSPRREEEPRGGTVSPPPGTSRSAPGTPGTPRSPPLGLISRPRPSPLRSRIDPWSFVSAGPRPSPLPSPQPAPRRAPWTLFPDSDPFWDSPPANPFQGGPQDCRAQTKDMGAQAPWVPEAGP
Excerpt: as §1

NUAK1 = target: T3, NUAK1 (Homo sapiens, UniProt O60285); assay: Kinase selectivity panel, NUAK1; conditions: for fold selectivity MAP4K4 over NUAK1: in favour of MAP4K4; for IC50: read-out: pIC50 NUAK1 (converted)
T3 sequence (O60285 1-661): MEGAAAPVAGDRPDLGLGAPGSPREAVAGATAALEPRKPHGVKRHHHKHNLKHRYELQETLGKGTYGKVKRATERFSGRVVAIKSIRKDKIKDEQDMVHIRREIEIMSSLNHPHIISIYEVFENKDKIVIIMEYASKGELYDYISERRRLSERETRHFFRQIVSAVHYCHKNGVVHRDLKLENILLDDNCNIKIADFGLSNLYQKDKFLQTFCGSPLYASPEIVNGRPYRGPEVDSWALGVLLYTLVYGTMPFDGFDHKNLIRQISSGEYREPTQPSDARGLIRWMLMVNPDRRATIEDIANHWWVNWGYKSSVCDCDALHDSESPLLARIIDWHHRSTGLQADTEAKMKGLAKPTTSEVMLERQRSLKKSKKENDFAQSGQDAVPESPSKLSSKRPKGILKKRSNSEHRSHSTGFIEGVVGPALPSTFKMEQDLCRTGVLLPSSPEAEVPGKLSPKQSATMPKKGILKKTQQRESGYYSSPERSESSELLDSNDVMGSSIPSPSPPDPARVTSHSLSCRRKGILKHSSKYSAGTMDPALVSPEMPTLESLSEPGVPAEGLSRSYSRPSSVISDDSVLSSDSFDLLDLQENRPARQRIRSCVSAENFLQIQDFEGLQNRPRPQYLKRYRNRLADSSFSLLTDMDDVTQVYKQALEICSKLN
Excerpt: as §1

KHS/MAP4K5 = KHS/MAP4K5 (Homo sapiens, UniProt Q9Y4K4); assay: Kinase selectivity panel, KHS/MAP4K5; conditions: for fold selectivity MAP4K4 over KHS/MAP4K5: in favour of MAP4K4; for IC50: read-out: pIC50 KHS/MAP4K5 (converted)
Sequence of KHS/MAP4K5 (Q9Y4K4 whole entry): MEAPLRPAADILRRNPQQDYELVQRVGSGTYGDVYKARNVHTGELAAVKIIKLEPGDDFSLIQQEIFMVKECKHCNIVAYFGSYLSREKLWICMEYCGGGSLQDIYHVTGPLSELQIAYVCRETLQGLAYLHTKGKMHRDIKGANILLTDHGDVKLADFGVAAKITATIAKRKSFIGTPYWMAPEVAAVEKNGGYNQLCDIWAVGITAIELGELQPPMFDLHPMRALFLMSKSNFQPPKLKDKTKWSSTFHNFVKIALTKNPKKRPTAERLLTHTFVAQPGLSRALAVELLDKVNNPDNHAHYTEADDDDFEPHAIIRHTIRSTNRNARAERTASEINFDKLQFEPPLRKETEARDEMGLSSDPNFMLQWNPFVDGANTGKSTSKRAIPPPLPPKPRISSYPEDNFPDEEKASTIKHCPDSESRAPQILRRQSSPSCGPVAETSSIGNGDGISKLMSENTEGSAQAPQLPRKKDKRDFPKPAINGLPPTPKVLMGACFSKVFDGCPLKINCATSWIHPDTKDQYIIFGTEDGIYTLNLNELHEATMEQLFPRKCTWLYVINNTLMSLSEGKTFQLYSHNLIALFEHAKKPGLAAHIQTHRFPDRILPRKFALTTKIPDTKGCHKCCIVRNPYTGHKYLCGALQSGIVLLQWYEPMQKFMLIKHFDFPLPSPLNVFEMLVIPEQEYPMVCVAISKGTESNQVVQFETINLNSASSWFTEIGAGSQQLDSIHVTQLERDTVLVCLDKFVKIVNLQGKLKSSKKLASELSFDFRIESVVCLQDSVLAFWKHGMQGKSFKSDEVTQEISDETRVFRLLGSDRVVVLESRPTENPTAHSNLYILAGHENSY
Excerpt: as §1

ABL1 = ABL1 (Homo sapiens, UniProt P00519); assay: Kinase selectivity panel, ABL1; conditions: for fold selectivity MAP4K4 over ABL1: in favour of MAP4K4; for IC50: read-out: pIC50 ABL1 (converted)
Excerpt: as §1

Aurora B = Aurora B (Homo sapiens, UniProt Q96GD4); assay: Kinase selectivity panel, Aurora B; conditions: for fold selectivity MAP4K4 over Aurora B: in favour of MAP4K4
Sequence of Aurora B (Q96GD4 whole entry): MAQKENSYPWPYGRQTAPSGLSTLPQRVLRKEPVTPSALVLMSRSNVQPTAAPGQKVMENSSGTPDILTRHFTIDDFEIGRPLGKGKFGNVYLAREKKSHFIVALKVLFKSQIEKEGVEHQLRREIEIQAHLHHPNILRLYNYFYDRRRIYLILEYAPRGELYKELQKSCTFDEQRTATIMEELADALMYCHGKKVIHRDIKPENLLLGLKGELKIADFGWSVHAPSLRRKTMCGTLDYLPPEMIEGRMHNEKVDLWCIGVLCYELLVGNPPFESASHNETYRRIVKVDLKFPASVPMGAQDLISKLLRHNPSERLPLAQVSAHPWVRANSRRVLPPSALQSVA
Excerpt: as §1

GLK/MAP4K3 = target: T4, GLK/MAP4K3 (Homo sapiens, UniProt Q8IVH8); assay: Kinase selectivity panel, GLK/MAP4K3; conditions: for fold selectivity MAP4K4 over GLK/MAP4K3: in favour of MAP4K4; for IC50: read-out: pIC50 GLK/MAP4K3 (converted)
T4 sequence (Q8IVH8 1-894): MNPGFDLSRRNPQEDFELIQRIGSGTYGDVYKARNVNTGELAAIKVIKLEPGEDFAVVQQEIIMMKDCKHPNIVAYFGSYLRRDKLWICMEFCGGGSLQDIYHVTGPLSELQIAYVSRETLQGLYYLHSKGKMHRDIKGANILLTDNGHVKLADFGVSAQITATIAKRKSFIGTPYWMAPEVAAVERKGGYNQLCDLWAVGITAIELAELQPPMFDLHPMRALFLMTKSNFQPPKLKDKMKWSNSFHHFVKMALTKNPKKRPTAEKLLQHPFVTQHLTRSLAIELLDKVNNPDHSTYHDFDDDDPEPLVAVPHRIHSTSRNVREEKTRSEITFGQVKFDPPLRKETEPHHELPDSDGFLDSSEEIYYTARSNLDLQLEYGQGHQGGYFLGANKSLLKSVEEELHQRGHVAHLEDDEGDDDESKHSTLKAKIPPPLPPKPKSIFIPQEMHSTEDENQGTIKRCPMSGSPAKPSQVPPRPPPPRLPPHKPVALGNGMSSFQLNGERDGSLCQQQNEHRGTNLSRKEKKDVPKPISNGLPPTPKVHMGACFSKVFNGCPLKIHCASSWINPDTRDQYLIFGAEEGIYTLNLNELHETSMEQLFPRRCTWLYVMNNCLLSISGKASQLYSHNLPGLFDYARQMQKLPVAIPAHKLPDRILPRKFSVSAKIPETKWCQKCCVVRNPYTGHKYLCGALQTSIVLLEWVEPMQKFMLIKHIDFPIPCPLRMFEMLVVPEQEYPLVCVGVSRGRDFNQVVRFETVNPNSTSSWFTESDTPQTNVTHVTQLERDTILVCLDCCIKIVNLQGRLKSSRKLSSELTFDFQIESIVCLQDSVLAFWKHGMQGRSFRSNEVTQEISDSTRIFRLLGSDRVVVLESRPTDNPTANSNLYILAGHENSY
Excerpt: as §1

[2] = IC50 category, ATP at Km (10 μM), 0.5 nM kinase domain, 2 h, read-out: MAP4K4
[3] = read-out: pIC50 MAP4K4 (converted)

T1 sequence (O95819 25-289 limits assumed): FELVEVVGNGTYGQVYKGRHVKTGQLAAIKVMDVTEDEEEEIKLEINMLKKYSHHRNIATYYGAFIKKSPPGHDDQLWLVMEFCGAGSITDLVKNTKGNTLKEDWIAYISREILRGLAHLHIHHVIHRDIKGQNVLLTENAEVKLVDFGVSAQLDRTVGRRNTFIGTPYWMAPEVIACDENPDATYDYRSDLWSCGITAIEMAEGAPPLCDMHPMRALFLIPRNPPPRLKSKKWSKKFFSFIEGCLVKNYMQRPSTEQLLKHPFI

Structure (SMILES) | IC50 [1, 2] [nM] | IC50 [1, 3] [nM] | IC50 (MINK1/MAP4K6) [nM] | IC50 (TNIK/MAP4K7) [nM] | fold selectivity MAP4K4 over GCK/MAP4K2 (GCK/MAP4K2) | IC50 (GCK/MAP4K2) [nM] | fold selectivity MAP4K4 over MLK1/MAP3K9 (MLK1/MAP3K9) | IC50 (MLK1/MAP3K9) [nM] | fold selectivity MAP4K4 over MLK3/MAP3K11 (MLK3/MAP3K11) | IC50 (MLK3/MAP3K11) [nM] | fold selectivity MAP4K4 over NUAK1 (NUAK1) | IC50 (NUAK1) [nM] | fold selectivity MAP4K4 over KHS/MAP4K5 (KHS/MAP4K5) | IC50 (KHS/MAP4K5) [nM] | fold selectivity MAP4K4 over ABL1 (ABL1) | IC50 (ABL1) [nM] | fold selectivity MAP4K4 over Aurora B (Aurora B) | IC50 (Aurora B; read-out: pIC50 Aurora B (converted)) [nM] | fold selectivity MAP4K4 over GLK/MAP4K3 (GLK/MAP4K3) | IC50 (GLK/MAP4K3) [nM]
O=c1[nH]cnc2c1c(-c1cnn(C3COC3)c1)cn2-c1ccccc1 [Ex-26] | ≤ 100 | 31.6 | 63.1 | 316 | (16) fold | 501 | (8) fold | 126 | (1) fold | 31.6 | (3) fold | 100 |  |  |  |  |  |  |  | 
COCCOc1ccc(-c2cn(-c3cccc(F)c3)c3nc[nH]c(=O)c23)cn1 [Ex-29] | ≤ 100 | 20 | 12.6 | 31.6 | (50) fold | 1000 | (20) fold | 398 | (25) fold | 501 | (16) fold | 316 | (50) fold | 1000 |  |  | (>1000) fold |  | (>1000) fold | 
COCCOc1ccc(-c2cn(-c3cccnc3)c3nc[nH]c(=O)c23)cc1 [Ex-67] | ≤ 100 | 25.1 |  | 200 | (79) fold | 2000 |  |  | (63) fold | 1580 | (50) fold | 1260 | (63) fold | 1580 | (>1000) fold | 31600 |  |  | (1000) fold | 25100

Continued, values first:

IC50 [1, 2] [nM] | IC50 [1, 3] [nM] | IC50 (MINK1/MAP4K6) [nM] | IC50 (TNIK/MAP4K7) [nM] | fold selectivity MAP4K4 over GCK/MAP4K2 (GCK/MAP4K2) | IC50 (GCK/MAP4K2) [nM] | fold selectivity MAP4K4 over MLK1/MAP3K9 (MLK1/MAP3K9) | IC50 (MLK1/MAP3K9) [nM] | fold selectivity MAP4K4 over MLK3/MAP3K11 (MLK3/MAP3K11) | IC50 (MLK3/MAP3K11) [nM] | fold selectivity MAP4K4 over NUAK1 (NUAK1) | IC50 (NUAK1) [nM] | fold selectivity MAP4K4 over KHS/MAP4K5 (KHS/MAP4K5) | IC50 (KHS/MAP4K5) [nM] | fold selectivity MAP4K4 over ABL1 (ABL1) | IC50 (ABL1) [nM] | fold selectivity MAP4K4 over Aurora B (Aurora B) | IC50 (Aurora B; read-out: pIC50 Aurora B (converted)) [nM] | fold selectivity MAP4K4 over GLK/MAP4K3 (GLK/MAP4K3) | IC50 (GLK/MAP4K3) [nM] | Structure (SMILES)
≤ 100 | 15.8 | 10 | 20 | (31) fold | 501 | (5) fold | 79.4 | (5) fold | 79.4 | (13) fold | 200 |  |  |  |  |  |  |  |  | O=c1[nH]cnc2c1c(-c1cnn(CCO)c1)cn2-c1ccccc1 [Ex-27]
≤ 100 | 12.6 | 31.6 | 50.1 | (79) fold | 1000 | (398) fold | 5010 | (79) fold | 1000 | (251) fold | 3160 | (63) fold | 794 | (501) fold | 6310 | (501) fold | 6310 |  |  | COCCOc1ccc(-c2cn(-c3ccncc3)c3nc[nH]c(=O)c23)cc1 [Ex-28]
≤ 100 | 31.6 | 31.6 | 50.1 | (5) fold | 158 | (100) fold | 3160 | (13) fold | 398 | (4) fold | 126 | (6) fold | 200 | (126) fold | 3980 |  |  | (50) fold | 1580 | O=c1[nH]cnc2c1c(-c1ccc(OCC(O)CN3CCOCC3)cc1)cn2-c1cccnc1 (stereo not shown) [Ex-54]
